Patent US20110223157A1, “METHODS FOR THE TREATMENT OF NON-HODGKIN'S LYMPHOMAS USING LENALIDOMIDE, AND GENE AND PROTEIN BIOMARKERS AS A PREDICTOR” (priority 2010, published 2011)
Read-outs that look alike come from different tables or passages of the source.

How the values were obtained:
Format in all cases: cell-based
[1] = system: DLBCL cell lines; assay: Proliferation of DLBCL cells in vitro, 3H-thymidine incorporation
Protocol: A panel of DLBCL cell lines of various cytogenetic features was tested for their sensitivity to the antiproliferative activity of lenalidomide. Cells were treated with lenalidomide for 5 days at 37° C.; proliferation of cells was determined using ^3H-thymidine incorporation method. Results of 3 independent experiments are shown (mean±SD). […] ABC-subtype cells appear more sensitive to the antiproliferative effect than other subtype cells including GCB-DLBCL and PMBL cells.

[2] = system: NFκB p65; assay: NFκB p65 activity, Active Motif transcription factor assay on nuclear extracts of treated DLBCL cells; conditions: 2 days; for inhibition at 1 µM / inhibition at 10 µM: read-out: P65 Inhibition (%) mean ± SD
Protocol: (§1) DLBCL cells were treated with lenalidomide or an IKK1/2 dual inhibitor (used as a positive inhibitor control) for 2 days. NFκB activity was examined with Active Motif transcription factor assay using nuclear extracts from cells following treatment.

[3] = system: NFκB p50; assay: NFκB p50 activity, Active Motif transcription factor assay on nuclear extracts of treated DLBCL cells; conditions: 2 days; for inhibition at 1 µM / inhibition at 10 µM: read-out: P50 Inhibition (%) mean ± SD
Protocol: as §1

[4] = 48 h, KARPS-1160p cells (PBML), 1 μM
[5] = Homo sapiens, OCI-Ly3, 48 h, OCI-Ly3 cells, 1 μM
[6] = Homo sapiens, OCI-Ly3, 48 h, OCI-Ly3 cells
[7] = Homo sapiens, OCI-Ly10, 48 h, OCI-Ly10 cells, 1 μM
[8] = Homo sapiens, OCI-Ly10, 48 h, OCI-Ly10 cells
[9] = Homo sapiens, TMD8, 48 h, TMD8 cells, 1 μM
[10] = Homo sapiens, TMD8, 48 h, TMD8 cells

## Nc1cccc2c1CN(C1CCC(=O)NC1=O)C2=O (stereo not drawn) [lenalidomide, 3-(4-amino-1-oxo-1,3-dihydro-isoindol-2-yl)-piperidine-2,6-dione]
[1]; ABC cell lines U2392, RIVA, TMD8 and OCI-Ly10
  Effect on proliferation: significantly inhibits
[1]; several DLBCL lines, particularly ABC-subtype Riva, U2932, TMD8, OCI-Ly10, 5 days at 37° C.
  Starting concentration of significant (p<0.05) inhibition of proliferation: 0.1 to 1 µM
[2]; 1 μM, U2932 cells, p<0.001
  Effect on NFκB p65 activity: significantly inhibits
[2]; [4]
  inhibition at 1 µM: 5.9 ± 0.49%
[2]; 48 h, KARPS-1160p cells (PBML)
  inhibition at 10 µM: 5.4 ± 0.35%
[2]; 48 h, RIVA cells, 1 μM
  inhibition at 1 µM: 19.3 ± 15.6%
[2]; 48 h, RIVA cells
  inhibition at 10 µM: 41.7 ± 26.8%
[2]; 48 h, U2392 cells, 1 μM
  inhibition at 1 µM: 40 ± 3.7%
[2]; 48 h, U2392 cells
  inhibition at 10 µM: 47.9 ± 6.2%
[2]; [5]
  inhibition at 1 µM: -17.4 ± 13.4%
[2]; [6]
  inhibition at 10 µM: -15.8 ± 15%
[2]; [7]
  inhibition at 1 µM: 27.6 ± 20.7%
[2]; [8]
  inhibition at 10 µM: 22 ± 12.2%
[2]; [9]
  inhibition at 1 µM: 14.1 ± 9%
[2]; [10]
  inhibition at 10 µM: 49.7 ± 32.8%
[3]; 1 μM, U2932 cells, p<0.05
  Effect on NFκB p50 activity: significantly inhibits
[3]; [4]
  inhibition at 1 µM: 14.5 ± 0.95%
[3]; 48 h, KARPS-1160p cells (PBML)
  inhibition at 10 µM: 16.4 ± 0.28%
[3]; 48 h, RIVA cells, 1 μM
  inhibition at 1 µM: 11.1 ± 11.7%
[3]; 48 h, RIVA cells
  inhibition at 10 µM: 28.6 ± 21%
[3]; 48 h, U2392 cells, 1 μM
  inhibition at 1 µM: 32.5 ± 14.3%
[3]; [5]
  inhibition at 1 µM: -10.3 ± 19.7%
[3]; [6]
  inhibition at 10 µM: -9.5 ± 19.1%
[3]; [7]
  inhibition at 1 µM: 22.7 ± 18.8%
[3]; [8]
  inhibition at 10 µM: 22.6 ± 14.1%
[3]; [9]
  inhibition at 1 µM: 14.4 ± 16.4%
[3]; [10]
  inhibition at 10 µM: 48.5 ± 40.2%
